Assay results published in ChEMBL document CHEMBL5143734, “Seco-Lupane Triterpene Derivatives Induce Ferroptosis through GPX4/ACSL4 Axis and Target Cyclin D1 to Block the Cell Cycle” (J Med Chem, 2022).
Activity calls are given as the source filed them. No cut-off for these calls is given here.

Key:
HepG2 [1] = test: Antiinvasive activity in human HepG2 cells assessed as inhibition of cell invasion measured after 24 hrs by crystal violet staining based transwell assay; format: functional; settings: dose 0.125-0.5 µM, DDE = dose-dependent effect
HepG2 [2] = test: Cytotoxicity against human HepG2 cells assessed as reduction in cell viability incubated for 48 hrs by CCK-8 assay; format: functional, cell-based; settings: dose 0.78125-50 µM, DDE = dose-dependent effect
HepG2 [3] = test: Antiproliferative activity against human HepG2 cells incubated for 24 to 48 hrs by Edu staining based fluorescence microscopy assay; format: functional, cell-based; settings: dose 0.125-2 µM, time 24-48 hrs, DDE = dose-dependent effect
HepG2 [4] = test: Induction of ferroptosis in human HepG2 cells assessed as downregulation of GPX4 mRNA expression by measuring fragments per kilo base of exon per million mapped fragments by qRT-PCR analysis (reference value: 298.18 to 302.30); format: functional
HepG2 [5] = test: Inhibition of Cyclin D1 in human HepG2 cells assessed as reduction in Rb phosphorylation by Western blot analysis; format: cell-based; settings: dose 0.5-2 µM, DDE = dose-dependent effect
HepG2 [6] = test: Induction of cell cycle arrest in human HepG2 cells assessed as increase in G1 phase at 0.5 to 2 uM; format: functional, cell-based; settings: dose 0.5-2 µM
HepG2 [7] = test: Induction of ferroptosis in human HepG2 cells assessed as increase in ACSL4 protein expression at 2 uM by Western blot analysis; format: functional, cell-based; settings: time 6-36 hrs, TDE = time-dependent effect
HepG2 [8] = test: Downregulation of Cyclin D1 protein expression in human HepG2 cells measured at 2 uM by Western blot analysis; format: functional, cell-based; settings: time 6-36 hrs, TDE = time-dependent effect
PC-3M = test: Cytotoxicity against human PC-3M cells assessed as reduction in cell viability by CCK-8 assay; format: functional, cell-based
HepG2 [9] = test: Induction of ferroptosis in human HepG2 cells assessed as log2 fold increase in ACSL4 mRNA expression by qRT-PCR analysis; format: functional
HepG2 [10] = test: Downregulation of Cyclin B1 mRNA expression in human HepG2 cells assessed as fragments per kilo base of exon per million mapped fragments by RT-qPCR analysis (reference value: 54.40 to 58.62); format: functional
HepG2 [11] = test: Induction of cell cycle arrest in human HepG2 cells assessed as decrease in cells at S phase at 0.5 to 2 uM; format: functional, cell-based; settings: dose 0.5-2 µM
[12] = Upregulation of Cyclin E1 mRNA expression in human HepG2 cells assessed as fragments per kilo base of exon per million mapped fragments […] (reference value: 11.43 to 14.86); format: functional
HepG2 [13] = test: Induction of ferroptosis in human HepG2 cells assessed as increase in ACSL4 mRNA expression measured after 6 to 36 hrs by qRT-PCR analysis; format: functional, cell-based; settings: dose 0.25-1 µM, time 6-36 hrs, DDE = dose-dependent effect
HepG2 [14] = test: Downregulation of Cyclin D1 mRNA expression in human HepG2 cells at 0.5 to 2.0 uM by RT-qPCR analysis; format: functional, cell-based; settings: dose 0.5-2 µM, time 6-36 hrs, TDE = time-dependent effect
HepG2 [15] = test: Induction of ferroptosis in human HepG2 cells assessed as decrease in GPX4 protein expression at 2 uM by Western blot analysis; format: functional, cell-based; settings: time 6-36 hrs, TDE = time-dependent effect
HepG2 [16] = test: Antiproliferative activity against human HepG2 cells assessed as inhibition of clone formation pretreated for 48 hrs followed by replacement with drug free medium every 3 days for 10 days by crystalline violet staining based assay; format: functional, cell-based; settings: dose 0.5-2 µM, DDE = dose-dependent effect
HepG2 [17] = test: Induction of ferroptosis in human HepG2 cells assessed as log2 fold decrease in GPX4 mRNA expression by qRT-PCR analysis; format: functional
HepG2 [18] = test: Downregulation of Cyclin B1 mRNA expression in human HepG2 cells at 0.5 to 2.0 uM by RT-qPCR analysis; format: functional, cell-based; settings: dose 0.5-2 µM, time 6-36 hrs, TDE = time-dependent effect
HepG2 [19] = test: Induction of ferroptosis in human HepG2 cells assessed as increased in Fe2+ level incubated for 36 hrs; format: functional, cell-based; settings: dose 0.5-2 µM, DDE = dose-dependent effect
HepG2 [20] = test: Induction of ferroptosis in human HepG2 cells assessed as increased in MDA level incubated for 36 hrs; format: functional, cell-based; settings: dose 0.5-2 µM, DDE = dose-dependent effect
HepG2 [21] = test: Induction of ferroptosis in human HepG2 cells assessed as increase in intracellular ROS level incubated for 48 hrs by DCFH-DA staining based fluorescence microscopic analysis; format: functional, cell-based; settings: dose 0.25-1 µM, DDE = dose-dependent effect
HepG2 [22] = test: Antiproliferative activity against human HepG2 cells at 0.125 to 2 uM by Edu staining based fluorescence microscopy assay; format: functional, cell-based; settings: dose 0.125-2 µM, time 24-48 hrs, TDE = time-dependent effect
HepG2 [23] = test: Downregulation of Cyclin E1 mRNA expression in human HepG2 cells at 0.5 to 2.0 uM by RT-qPCR analysis; format: functional, cell-based; settings: dose 0.5-2 µM, time 6-36 hrs, TDE = time-dependent effect
[24] = target: G1/S-specific cyclin-D1 (Homo sapiens) (UniProt P24385); test: Binding affinity to Cyclin D1 in human HepG2 cells by laser confocal microscopy; format: cell-based
G1/S-specific cyclin-D1 (Homo sapiens), sequence (P24385 whole entry): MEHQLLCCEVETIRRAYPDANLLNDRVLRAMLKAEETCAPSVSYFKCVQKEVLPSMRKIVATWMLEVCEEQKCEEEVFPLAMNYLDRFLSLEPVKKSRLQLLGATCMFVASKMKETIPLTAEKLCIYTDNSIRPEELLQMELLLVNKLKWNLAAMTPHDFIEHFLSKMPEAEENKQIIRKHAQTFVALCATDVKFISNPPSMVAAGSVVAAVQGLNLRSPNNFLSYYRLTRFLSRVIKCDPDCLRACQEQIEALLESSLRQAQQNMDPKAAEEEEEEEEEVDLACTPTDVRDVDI

HepG2 [25] = test: Inhibition of Cyclin D1 in human HepG2 cells assessed as reduction in CDK6 expression by Western blot analysis; format: cell-based; settings: dose 0.5-2 µM, DDE = dose-dependent effect
HepG2 [26] = test: Downregulation of Cyclin D1 mRNA expression in human HepG2 cells assessed as fragments per kilo base of exon per million mapped fragments by RT-qPCR analysis (reference value: 59.65 to 61.74); format: functional
HepG2 [27] = test: Cytotoxicity against human HepG2 cells assessed as reduction in cell viability at 50 uM incubated for 48 hrs by CCK-8 assay; format: functional, cell-based
HepG2 [28] = test: Induction of ferroptosis in human HepG2 cells assessed as decreased in GSH level incubated for 36 hrs; format: functional, cell-based; settings: dose 0.5-2 µM, DDE = dose-dependent effect
[29] = Inhibition of Cyclin D1 in human HepG2 cells assessed as reduction in CDK4 expression by Western blot analysis; settings: dose 0.5-2 µM, DDE = dose-dependent effect
HepG2 [30] = test: Cytotoxicity against human HepG2 cells assessed as reduction in cell viability by CCK-8 assay; format: functional, cell-based
MCF7 = test: Cytotoxicity against human MCF7 cells assessed as reduction in cell viability by CCK-8 assay; format: functional, cell-based
HepG2 [31] = test: Cytotoxicity against human HepG2 cells assessed as reduction in cell viability at 10 uM relative to control; format: functional
HepG2 [32] = test: Downregulation of Cyclin A2 mRNA expression in human HepG2 cells at 0.5 to 2.0 uM by RT-qPCR analysis; format: functional, cell-based; settings: dose 0.5-2 µM, time 6-36 hrs, TDE = time-dependent effect
PANC-1 = test: Cytotoxicity against human PANC-1 cells assessed as reduction in cell viability by CCK-8 assay; format: functional, cell-based
HepG2 [33] = test: Induction of ferroptosis in human HepG2 cells assessed as increase in intracellular ROS level incubated for 48 hrs by DCFH-DA staining based flow cytometry analysis; format: functional, cell-based; settings: dose 0.25-1 µM, DDE = dose-dependent effect
HepG2 [34] = test: Inhibition of Cyclin D1 in human HepG2 cells assessed as reduction in E2F expression by Western blot analysis; format: cell-based; settings: dose 0.5-2 µM, DDE = dose-dependent effect
HepG2 [35] = test: Induction of ferroptosis in human HepG2 cells assessed as upregulation of ACSL4 mRNA expression at 0.25 to 1 uM by qRT-PCR analysis; format: functional, cell-based; settings: dose 0.25-1 µM, time 24-48 hrs, TDE = time-dependent effect
HepG2 [36] = test: Induction of ferroptosis in human HepG2 cells assessed as increase in intracellular ROS level at 2 uM incubated for 48 hrs by DCFH-DA staining based flow cytometry analysis; format: functional

Activity [24]: Active | inhibition [29]: Dde
SMILES: C=C(C)[C@@H]1CC[C@]2(C(=O)OCCCCCn3cc(CCN)c4ccccc43)CC[C@]3(C)[C@H](C[C@H]4OC(=O)C[C@@H](O)[C@]5(C)[C@@H]4[C@@]3(C)CC[C@H]5C(=C)C)[C@@H]12
Activity (HepG2 [1]): Dde | Activity (HepG2 [2]): Dde | Activity (HepG2 [3]): Dde | Activity (HepG2 [4]): 221.77 | inhibition (HepG2 [5]): Dde | Activity (HepG2 [6]): Active | Activity (HepG2 [7]): Tde | Activity (HepG2 [8]): Tde | IC50 (PC-3M): 3.93 µM | log2FC (HepG2 [9]): 0.83 | Activity (HepG2 [10]): 39.59 | Activity (HepG2 [11]): Active | Activity [12]: 14.11 | Activity (HepG2 [13]): Dde | Activity (HepG2 [14]): Tde | Activity (HepG2 [15]): Tde | Activity (HepG2 [16]): Dde | log2FC (HepG2 [17]): -0.29 | Activity (HepG2 [18]): Tde | Activity (HepG2 [19]): Dde | Activity (HepG2 [20]): Dde | Activity (HepG2 [21]): Dde | Activity (HepG2 [22]): Tde | Activity (HepG2 [23]): Tde | inhibition (HepG2 [25]): Dde | Activity (HepG2 [26]): 53.4 | Activity (HepG2 [27]): Active | Activity (HepG2 [28]): Dde | IC50 (HepG2 [30]): 970 nM | IC50 (MCF7): 5.34 µM | Activity (HepG2 [31]): 20.15% | Activity (HepG2 [32]): Tde | IC50 (PANC-1): 5.5 µM | Activity (HepG2 [33]): Dde | inhibition (HepG2 [34]): Dde | Activity (HepG2 [35]): Tde | Activity (HepG2 [36]): 96.39%
